Experimental data reported in patent US7964731B2, “Isotopically marked quinoline derivatives as adenosin A3 receptor ligands” (Sanofi-Aventis, priority 2004, dated 2011).

Columns and labels:
[1] = molecular target: T1, human A3 receptors (CHO-hA3 membrane preparation) (Homo sapiens, UniProt P0DMS8); assay: Human adenosine A3 receptor binding in the presence of [125I]AB-MECA
T1 sequence (P0DMS8 1-318): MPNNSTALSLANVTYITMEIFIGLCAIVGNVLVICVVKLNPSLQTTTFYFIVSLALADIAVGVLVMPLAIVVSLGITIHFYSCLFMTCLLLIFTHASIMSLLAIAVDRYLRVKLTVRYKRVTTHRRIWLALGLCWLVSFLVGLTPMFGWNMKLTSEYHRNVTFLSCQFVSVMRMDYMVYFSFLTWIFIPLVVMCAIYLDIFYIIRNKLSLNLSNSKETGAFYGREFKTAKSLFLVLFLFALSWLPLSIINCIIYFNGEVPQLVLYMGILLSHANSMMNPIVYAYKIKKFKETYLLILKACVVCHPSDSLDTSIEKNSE

[2] = molecular target: T2, human A1 receptors (CHO-hA1 membrane preparation) (Homo sapiens, UniProt P30542); assay: Human adenosine A1 receptor binding, [3H]CCPA; details: 1 μM test compound, radioligand [3H]CCPA
T2 sequence (P30542 1-326): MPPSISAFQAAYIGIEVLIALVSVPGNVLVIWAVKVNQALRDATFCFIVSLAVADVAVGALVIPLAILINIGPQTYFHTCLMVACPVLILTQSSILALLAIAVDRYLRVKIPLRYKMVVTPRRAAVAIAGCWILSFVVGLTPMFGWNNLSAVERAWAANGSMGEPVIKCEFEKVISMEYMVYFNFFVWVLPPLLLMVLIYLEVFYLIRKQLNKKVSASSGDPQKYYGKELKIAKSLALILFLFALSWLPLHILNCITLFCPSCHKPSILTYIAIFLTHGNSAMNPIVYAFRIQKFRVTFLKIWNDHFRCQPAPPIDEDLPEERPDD
Protocol: Preparing membrane suspension: collect ovarium cells of cloned Chinese hamster expressing human A1 receptors (further: CHO-hA1), wash them three times with PBS, centrifuge (1000×g 10 min.) and homogenize (B.Braun Potter S) at 1500/min rotation speed. Buffer: 50 mM Tris HCl, pH 7,4. Centrifuge this homogenized mixture (43.000 g, 10 min), suspense the pellet in the above buffer with adjustment of the protein concentration to 5 mg/mL (Bradford method) and complete with 2 U/mL ADA. […] Filter over Whatman GF/B glass fibre filters (presoaked in 0.5% polyethylimine for 3 hours), wash 4× with 1 mL ice-cold 50 mM Tris HCl (pH 7.4) on 96-well Brandel Cell Harvester. Detection of activity: in 96-well plate in the presence of HiSafe-3 cocktail in beta-counter (1450 Microbeta, Wallac). Inhibition [%]=100−((activity in the presence of test compound−non-specific activity)/(total activity−non-specific activity))*100

[3] = molecular target: T3, human A2a adenosine receptors transfected into HEK-293 cells (Homo sapiens, UniProt P29274); assay: Human adenosine A2a receptor binding, [3H]CGS-21680; details: 1 μM test compound, radioligand [3H]CGS21680; read-out: Inhibition in 1 μM hA2A [3H]CGS21680
T3 construct: purchased Receptor Biology, Inc; host or cells: HEK-293 cells (transfected), membranes
T3 sequence (P29274 whole entry): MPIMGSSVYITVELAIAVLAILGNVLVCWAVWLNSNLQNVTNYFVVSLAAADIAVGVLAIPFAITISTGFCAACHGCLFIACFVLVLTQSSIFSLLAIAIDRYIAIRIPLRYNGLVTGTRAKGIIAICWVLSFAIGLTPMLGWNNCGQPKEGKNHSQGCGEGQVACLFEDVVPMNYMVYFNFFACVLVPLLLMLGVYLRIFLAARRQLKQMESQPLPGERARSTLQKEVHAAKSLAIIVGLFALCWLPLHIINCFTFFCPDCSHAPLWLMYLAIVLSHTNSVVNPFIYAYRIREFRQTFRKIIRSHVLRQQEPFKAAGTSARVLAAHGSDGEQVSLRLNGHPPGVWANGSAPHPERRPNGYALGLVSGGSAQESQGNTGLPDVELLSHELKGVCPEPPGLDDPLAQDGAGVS
Protocol: Human Adenosine A2a Receptor Binding
Incubate 7 μg of membranes (human A2, adenosine receptors transfected into HEK-293 cells, source: Receptor Biology, Inc.), in the presence of the test compound and 20 nM [^3H]CGS-21680 (2-[p-(2-carbonylethyl)phenylethylamino]-5′-N-ethylcarboxamido-adenosine) (200.000 dpm) in incubation buffer (50 mM Tris HCl, 10 mM MgCl2, 1 mM EDTA, 2 U/mL adenosine deaminase, pH 7.4). The non-specific binding is defined in the presence of […] NECA (5′-N-ethylcarboxamido-adenosine) in a total volume of 100 μl for 90 min at room temperature. Filter in vacuum over Whatman GF/B glass fibre filters (presoaked for 3 hours in 0.5% polyethylimine), wash 4× with 1 mL ice-cold buffer (50 mM Tris HCl, 10 mM MgCl2, 1 mM EDTA, 0.9% NaCl, pH 7.4) on 96-well Brandel Cell Harvester. Detection of activity: in beta-counter (1450 Microbeta, Wallac) in the presence of 200 μL HiSafe-3 cocktail. Inhibition [%]=100−((activity in the presence of test compound−non-specific activity)/(total activity−non-specific activity))*100.

[4] = molecular target: T4, human A2b adenosine receptors transfected into HEK-293 cells (Homo sapiens, UniProt P29275); assay: Human adenosine A2b receptor binding, [3H]DPCPX; details: 1 μM test compound, radioligand [3H]DPCPX; read-out: Inhibition in 1 μM hA2B [3H]DPCPX
T4 construct: purchased Receptor Biology, Inc; host or cells: HEK-293 cells (transfected), membranes
T4 sequence (P29275 1-332): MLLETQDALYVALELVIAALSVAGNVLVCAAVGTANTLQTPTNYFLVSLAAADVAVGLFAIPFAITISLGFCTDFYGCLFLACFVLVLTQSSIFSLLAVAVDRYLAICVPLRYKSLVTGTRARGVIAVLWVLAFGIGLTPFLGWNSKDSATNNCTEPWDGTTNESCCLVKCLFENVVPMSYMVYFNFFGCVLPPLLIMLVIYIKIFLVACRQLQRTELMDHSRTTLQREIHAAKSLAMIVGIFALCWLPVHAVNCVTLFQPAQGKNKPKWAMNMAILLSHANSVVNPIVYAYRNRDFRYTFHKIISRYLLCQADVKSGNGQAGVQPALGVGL
Protocol: Human Adenosine A2b Receptor Binding
Binding protocol: incubate 20.8 μg of membranes (human A2b adenosine receptors transfected into HEK-293 cells, source: Receptor Biology, Inc.), in the presence of the test compound and 32.4 nM [^3H]DPCPX (8-cyclopenthyl-1,3-dipropylxanthine) (800.000 dpm) in incubation buffer (50 mM Tris-HCl, 10 mM MgCl2, 1 mM EDTA, 0.1 mM benzamidine, 2 U/mL adenosine deaminase, pH 6.5). The non-specific binding is defined in the presence of 100 μM NECA (5′-N-ethylcarboxamido-adenosine) in a total volume of 100 μL for 30 min at room temperature. Filter under 25 Hgmm vacuum over Whatman GF/C glass fibre filters (presoaked in 0.5% polyethylimine for 3 hours), wash 4× with 1 mL ice-cold 50 mM Tris HCl (pH 6.5) on 96-well Brandel Cell Harvester. Detection of activity: in beta-counter (1450 Microbeta, Wallac) in the presence of 200 μL of HiSafe-3 cocktail. Inhibition [%]=100−((activity in the presence of test compound−non-specific activity)/(total activity−non-specific activity))*100

[5] = molecular target: T1, human A3 receptors (CHO-hA3 membrane preparation); assay: Human adenosine A3 receptor binding in the presence of the radioactive iodine-containing compound of Example 2/a; details: radioligand of Example 2/a, 4 μg CHO-hA3 preparation, Cheng-Prusoff from IC50; read-out: Ki, the radioligand given in Example 2/a
[6] = molecular target: T5, human adenosine A3 receptor (CHO-hA3 membrane preparation) (Homo sapiens, UniProt P0DMS8); assay: Scatchard analysis of radioisotope saturation curves of the radioligand of Example 2/a; format: binding
T5 sequence (P0DMS8 1-318): T1 sequence (P0DMS8 1-318)

selectivity for adenosine A3 receptor compared to the other adenosine receptor sub-types ([1]; A3 versus A1, A2a, A2b) | Ki ([1]; radioligand [125I]AB-MECA, CHO-hA3 membranes) [nM] | inhibition at 1 µM [2] [%] | inhibition at 1 µM [3] [%] | inhibition at 1 µM [4] [%] | Ki [5] [nM] | Structure (SMILES) | Kd ([6]; 0.156 nM-10 nM radioligand, 4 μg protein CHO-hA3, read-out: dissociation constant (KD)) [nM] | maximal binding capacity ([6]; 4 μg protein CHO-hA3) [femtomol/1 mg protein]
at least thousand-fold selectivity | 1.5 | 4 | 29 | -16 | 1.3 | COc1ccc(C(=O)Nc2nc3ccc(I)cc3c(NCc3cccs3)c2C#N)cc1 [The starting compound of Example 2/b, 4-Methoxy-N-(6-iodo-4-[2-thienylmethylamino]-3-cyanoquinolin-2-yl)benzamide] |  | 
 |  |  |  |  |  | COc1ccc(C(=O)Nc2nc3ccc([125I])cc3c(NCc3cccs3)c2C#N)cc1 [Example 2/a, 4-Methoxy-N-(6-[^125I]iodo-4-[2-thienylmethylamino]-3-cyanoquinolin-2-yl)benzamide] | 4 | 985
